Laboratory results taken from patent US9255090B2, “Heterocyclyl derivatives and their use as prostaglandin D2 receptor modulators” (Actelion Pharmaceuticals Ltd., priority 2012, dated 2016).

Columns and labels:
hCRTH2 receptor = hCRTH2 receptor (Homo sapiens (Human), UniProt Q9Y5Y4); assay: hCRTH2 receptor membranes radioligand (3H-PGD2) displacement assay; type: binding; settings: 3H-PGD2 radioligand displacement, HEK293-hCRTH2 membranes
Method in brief: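 Compound was first mixed with buffer, then 3H-PGD2 was added at 2.5 nM, and the reaction was started with hCRTH2 membranes from HEK293 cells at 20 μg/well. After 90 min at room temperature, mixtures were filtered and washed with ice-cold buffer, and retained radioactivity was counted.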

eosinophils = assay: Eosinophil shape change assay with human plasma; type: cell-based; settings: Homo sapiens, Eosinophil, human plasma (50%), PGD2 100 nM activation, antagonistic activity
Method in brief: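 Human polymorphonuclear cells stained with anti-CD49d-APC, combined with compound-preincubated human plasma (50% of final volume, 4×10^6 cells/ml) for 10 min at 37° C., then stimulated 5 min with 100 nM PGD2 and fixed. Flow cytometry scored percent eosinophils with increased forward scatter.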

hCRTH2 receptor, sequence (Q9Y5Y4 whole entry): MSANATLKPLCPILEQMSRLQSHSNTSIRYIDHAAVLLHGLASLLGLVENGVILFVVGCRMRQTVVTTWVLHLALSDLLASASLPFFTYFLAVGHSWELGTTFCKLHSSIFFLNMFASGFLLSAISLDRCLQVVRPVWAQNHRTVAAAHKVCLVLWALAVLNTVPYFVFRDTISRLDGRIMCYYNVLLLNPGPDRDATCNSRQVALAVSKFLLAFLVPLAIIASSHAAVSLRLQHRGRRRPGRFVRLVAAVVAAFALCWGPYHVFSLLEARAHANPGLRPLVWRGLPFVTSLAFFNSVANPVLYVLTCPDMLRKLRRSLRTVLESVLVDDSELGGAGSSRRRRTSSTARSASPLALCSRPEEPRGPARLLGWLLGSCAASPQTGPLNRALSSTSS

Row | Structure (SMILES) | IC50 (hCRTH2 receptor) [nM] | IC50 (eosinophils) [nM]
1 | CCOc1ccc(CC(=O)O)cc1-c1ccc(F)c2c1CN(C(=O)OCC1CC1)CC2 [Example 372, 8-(5-Carboxymethyl-2-ethoxy-phenyl)-5-fluoro-3,4-dihydro-1H-isoquinoline-2-carboxylic acid cyclopropylmethyl ester] | 5.5 | 149
2 | CCOc1ccc(CC(=O)O)cc1-c1ccc(F)c2c1CN(C(=O)OC[C@H](C)c1ccccc1)CC2 [Example 374, 8-(5-Carboxymethyl-2-ethoxy-phenyl)-5-fluoro-3,4-dihydro-1H-isoquinoline-2-carboxylic acid (R)-2-phenyl-propyl ester] | 4.2 | 28
3 | CCCCOC(=O)N1CCc2c(F)ccc(-c3cc(CC(=O)O)ccc3OCC)c2C1 [Example 376, 8-(5-Carboxymethyl-2-ethoxy-phenyl)-5-fluoro-3,4-dihydro-1H-isoquinoline-2-carboxylic acid butyl ester] | 6.3 | 59
4 | CCOc1ccc(CC(=O)O)cc1-c1ccc(F)c2c1CN(C(=O)OCC(C)C)CC2 [Example 377, 8-(5-Carboxymethyl-2-ethoxy-phenyl)-5-fluoro-3,4-dihydro-1H-isoquinoline-2-carboxylic acid isobutyl ester] | 3.4 | 123
5 | CCOc1cc(CC(=O)O)ccc1-c1ccc(F)c2c1CN(C(=O)O[C@@H](C)c1ccccc1)CC2 [Example 389, 8-(4-Carboxymethyl-2-ethoxy-phenyl)-5-fluoro-3,4-dihydro-1H-isoquinoline-2-carboxylic acid (S)-1-phenyl-ethyl ester] | 16.7 | 122
6 | CCOc1cc(CC(=O)O)ccc1-c1ccc(F)c2c1CN(C(=O)OCC1CCCCC1)CC2 [Example 397, 8-(4-Carboxymethyl-2-ethoxy-phenyl)-5-fluoro-3,4-dihydro-1H-isoquinoline-2-carboxylic acid cyclohexylmethyl ester] | 6.8 | 15
7 | CCOc1ccc(CC(=O)O)cc1-c1ccc(F)c2c1CN(C(=O)OCc1ccc(F)cc1)CC2 [Example 398, 8-(5-Carboxymethyl-2-ethoxy-phenyl)-5-fluoro-3,4-dihydro-1H-isoquinoline-2-carboxylic acid 4-fluoro-benzyl ester] | 3.4 | 13
8 | CCOc1ccc(CC(=O)O)cc1-c1ccc(F)c2c1CN(C(=O)OCc1cccc(F)c1)CC2 [Example 399, 8-(5-Carboxymethyl-2-ethoxy-phenyl)-5-fluoro-3,4-dihydro-1H-isoquinoline-2-carboxylic acid 3-fluoro-benzyl ester] | 4.7 | 29
9 | CCOc1ccc(CC(=O)O)cc1-c1ccc(F)c2c1CN(C(=O)OCc1ccccc1F)CC2 [Example 400, 8-(5-Carboxymethyl-2-ethoxy-phenyl)-5-fluoro-3,4-dihydro-1H-isoquinoline-2-carboxylic acid 2-fluoro-benzyl ester] | 12.8 | 21
10 | CCOc1ccc(CC(=O)O)cc1-c1ccc(F)c2c1CN(C(=O)OCc1cc(F)ccc1F)CC2 [Example 401, 8-(5-Carboxymethyl-2-ethoxy-phenyl)-5-fluoro-3,4-dihydro-1H-isoquinoline-2-carboxylic acid 2,5-difluoro-benzyl ester] | 4.5 | 26
11 | CCOc1ccc(CC(=O)O)cc1-c1ccc(F)c2c1CN(C(=O)OCc1cc(Cl)ccc1F)CC2 [Example 402, 8-(5-Carboxymethyl-2-ethoxy-phenyl)-5-fluoro-3,4-dihydro-1H-isoquinoline-2-carboxylic acid 5-chloro-2-fluoro-benzyl ester] | 4.3 | 20
12 | CCOc1cc(CC(=O)O)ccc1-c1ccc(F)c2c1CN(C(=O)OCc1ccccc1F)CC2 [Example 406, 8-(4-Carboxymethyl-2-ethoxy-phenyl)-5-fluoro-3,4-dihydro-1H-isoquinoline-2-carboxylic acid 2-fluoro-benzyl ester] | 7.7 | 10
13 | CCOc1cc(CC(=O)O)ccc1-c1ccc(F)c2c1CN(C(=O)OCc1ccc(F)cc1F)CC2 [Example 409, 8-(4-Carboxymethyl-2-ethoxy-phenyl)-5-fluoro-3,4-dihydro-1H-isoquinoline-2-carboxylic acid 2,4-difluoro-benzyl ester] | 3.9 | 5
14 | CCOc1cc(CC(=O)O)ccc1-c1ccc(F)c2c1CN(C(=O)OCc1ccccc1)CC2 [Example 410, 8-(4-Carboxymethyl-2-ethoxy-phenyl)-5-fluoro-3,4-dihydro-1H-isoquinoline-2-carboxylic acid benzyl ester] | 26 | 13

These reach a lower IC50 (hCRTH2 receptor). Values come first.

Row | IC50 (hCRTH2 receptor) [nM] | IC50 (eosinophils) [nM] | Structure (SMILES)
15 | 2.7 | 20 | CCOc1cc(CC(=O)O)ccc1-c1ccc(F)c2c1CN(C(=O)OCc1cccc(F)c1)CC2 [Example 405, 8-(4-Carboxymethyl-2-ethoxy-phenyl)-5-fluoro-3,4-dihydro-1H-isoquinoline-2-carboxylic acid 3-fluoro-benzyl ester]
16 | 2.6 | 18 | CCOc1ccc(CC(=O)O)cc1-c1ccc(F)c2c1CN(C(=O)OCC1CCCCC1)CC2 [Example 396, 8-(5-Carboxymethyl-2-ethoxy-phenyl)-5-fluoro-3,4-dihydro-1H-isoquinoline-2-carboxylic acid cyclohexylmethyl ester]
17 | 2.3 | 10 | CCOc1cc(CC(=O)O)ccc1-c1ccc(F)c2c1CN(C(=O)OCc1ccc(F)cc1)CC2 [Example 404, 8-(4-Carboxymethyl-2-ethoxy-phenyl)-5-fluoro-3,4-dihydro-1H-isoquinoline-2-carboxylic acid 4-fluoro-benzyl ester]
18 | 2.1 | 9 | CCOc1cc(CC(=O)O)ccc1-c1ccc(F)c2c1CN(C(=O)OCc1cc(F)ccc1F)CC2 [Example 407, 8-(4-Carboxymethyl-2-ethoxy-phenyl)-5-fluoro-3,4-dihydro-1H-isoquinoline-2-carboxylic acid 2,5-difluoro-benzyl ester]
19 | 2 | 8 | CCOc1cc(CC(=O)O)ccc1-c1ccc(F)c2c1CN(C(=O)OCc1cc(Cl)ccc1F)CC2 [Example 408, 8-(4-Carboxymethyl-2-ethoxy-phenyl)-5-fluoro-3,4-dihydro-1H-isoquinoline-2-carboxylic acid 5-chloro-2-fluoro-benzyl ester]
20 | 1.7 | 42 | CCOc1ccc(CC(=O)O)cc1-c1ccc(F)c2c1CN(C(=O)OCCc1ccccc1)CC2 [Example 373, 8-(5-Carboxymethyl-2-ethoxy-phenyl)-5-fluoro-3,4-dihydro-1H-isoquinoline-2-carboxylic acid phenethyl ester]
21 | 1.7 | 15 | CCOc1ccc(CC(=O)O)cc1-c1ccc(F)c2c1CN(C(=O)OCc1ccc(F)cc1F)CC2 [Example 403, 8-(5-Carboxymethyl-2-ethoxy-phenyl)-5-fluoro-3,4-dihydro-1H-isoquinoline-2-carboxylic acid 2,4-difluoro-benzyl ester]
22 | 1.2 | 12 | CCOc1ccc(CC(=O)O)cc1-c1ccc(F)c2c1CN(C(=O)OCc1ccccn1)CC2 [Example 394, 8-(5-Carboxymethyl-2-ethoxy-phenyl)-5-fluoro-3,4-dihydro-1H-isoquinoline-2-carboxylic acid pyridin-2-ylmethyl ester]
